Reference: patent US9409905B2, “Antibacterial compounds and methods for use” (PTC THERAPEUTICS, INC., priority 2011, dated 2016)

Tests used:
[1] = tested on: Escherichia coli (E. coli) BAS849; assay: Antibacterial activity, microbroth dilution MIC (Table 1); format: cell-based; conditions: microbroth dilution, super sensitive Gram-negative E. coli BAS849, read-out: MIC, BAS849
Outline: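 Growth inhibition by microbroth dilution. MIC = lowest μg/mL with no visible growth. Strain 25922 is the control Gram-negative; BAS849 is hypersensitive.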

[2] = tested on: Staphylococcus aureus (S. aureus) 29213; assay: as above; format: cell-based; conditions: microbroth dilution, Gram-positive S. aureus 29213, read-out: MIC, 29213
Outline: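 MIC (μg/mL) is taken as the lowest concentration with no macroscopically visible growth. Strains tested by microbroth dilution: Gram-positive S. aureus 29213, control Gram-negative E. coli 25922, and super-sensitive E. coli BAS849.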

E. coli 25922 = assay: as above; format: cell-based, Escherichia coli; conditions: Escherichia coli; microbroth dilution; control Gram-negative E. coli 25922 strain; read-out: MIC, 25922
Outline: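 Microbroth dilution was used. MIC, in μg/mL, is the lowest drug concentration preventing macroscopically visible growth under the test conditions.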

E. coli LZ3111 = assay: Antibacterial activity, MIC, quinolone resistant strain (Table 2); format: cell-based; conditions: Escherichia coli, LZ3111, read-out: MIC LZ3111
Outline: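 MIC values (μg/mL) came from a microbroth dilution assay, scored as the lowest drug concentration at which no growth was visible by eye.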

E. coli ELZ4251 = assay: Antibacterial activity, MIC, multi-drug resistant clinical isolate (Table 3); format: cell-based; conditions: Escherichia coli
Source text: The antibacterial activity from a microbroth dilution method may be presented as the minimum inhibitory concentration (MIC in μg/mL). The MIC value is the lowest concentration of drug which prevents macroscopically visible growth under test conditions.
Antibacterial activity of test compounds against E. coli ELZ4000 and E. coli ELZ4251 multi-drug resistant clinical isolates is shown in Table 3.

[3] = tested on: Acinetobacter baumannii (A. baumannii) BAA747; assay: Antibacterial activity, MIC (Table 4); format: cell-based; conditions: A. baumannii BAA747, read-out: MIC, BAA747
Outline: (§1)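 Values are MICs in μg/mL, read as the lowest compound concentration at which no growth is visible by eye. They come from a microbroth dilution method.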

[4] = tested on: Klebsiella pneumoniae (K. pneumoniae) 35657; assay: Antibacterial activity, MIC (Table 4); format: cell-based; conditions: K. pneumoniae 35657, read-out: MIC, 35657
Outline: as §1

A. baumannii MXX2240 = assay: Antibacterial activity, MIC, resistant strain (Table 4); format: cell-based; conditions: Acinetobacter baumannii, MXX2240; resistant A. baumannii MMX2240, multi-drug resistant clinical isolate; read-out: MIC, MMX2240
Outline: as §1

K. pneumoniae MXX1232 = assay: as above; format: cell-based; conditions: Klebsiella pneumoniae, MXX1232; resistant K. pneumoniae MMX1232, multi-drug resistant clinical isolate; read-out: MIC, MMX1232
Outline: as §1

[5] = tested on: Pseudomonas aeruginosa (P. aeruginosa) 27853; assay: Antibacterial activity, MIC (Table 5); format: cell-based; conditions: P. aeruginosa 27853, read-out: MIC, 27853
Outline: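 Values are MICs in μg/mL, read as the lowest concentration at which no growth is visible by eye. They were determined by a microbroth dilution method.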

Measured: MIC

CCCCNCc1cc2cc(-c3[nH]c(=O)c(C(=O)O)c(O)c3CC)ccc2n1C [Cpd 333, 6-(2-((butylamino)methyl)-1-methyl-1H-indol-5-yl)-5-ethyl-4-hydroxy-2-oxo-1,2-dihydropyridine-3-carboxylic acid]
12.5 to 150 µg/mL: E. coli ELZ4251 | K. pneumoniae MXX1232 | [5]
3.5 to 12.5 µg/mL: [2] | E. coli LZ3111
1 to 3.5 µg/mL: A. baumannii MXX2240
< 1 µg/mL: all other assays above

CCCCCNCc1cc2cc(-c3[nH]c(=O)c(C(=O)O)c(O)c3CC)ccc2n1C [Cpd 334, 5-ethyl-4-hydroxy-6-(1-methyl-2-((pentylamino)methyl)-1H-indol-5-yl)-2-oxo-1,2-dihydropyridine-3-carboxylic acid]
1 to 3.5 µg/mL: [3] | [4]
< 1 µg/mL: [1] | E. coli 25922
12.5 to 150 µg/mL: all other assays above

CCCCCCNCc1cc2cc(-c3[nH]c(=O)c(C(=O)O)c(O)c3CC)ccc2n1C [Cpd 335, 5-ethyl-6-(2-((hexylamino)methyl)-1-methyl-1H-indol-5-yl)-4-hydroxy-2-oxo-1,2-dihydropyridine-3-carboxylic acid]
1 to 3.5 µg/mL: [2] | E. coli LZ3111 | [4]
3.5 to 12.5 µg/mL: [3]
< 1 µg/mL: [1] | E. coli 25922
12.5 to 150 µg/mL: all other assays above

CCCCCCCNCc1cc2cc(-c3[nH]c(=O)c(C(=O)O)c(O)c3CC)ccc2n1C [Cpd 336, 5-ethyl-6-(2-((heptylamino)methyl)-1-methyl-1H-indol-5-yl)-4-hydroxy-2-oxo-1,2-dihydropyridine-3-carboxylic acid]
< 1 µg/mL: [1] | [2] | E. coli LZ3111
3.5 to 12.5 µg/mL: E. coli 25922
12.5 to 150 µg/mL: all other assays above

CCCCCCCCNCc1cc2cc(-c3[nH]c(=O)c(C(=O)O)c(O)c3CC)ccc2n1C [Cpd 337, 5-ethyl-4-hydroxy-6-(1-methyl-2-((octylamino)methyl)-1H-indol-5-yl)-2-oxo-1,2-dihydropyridine-3-carboxylic acid]
< 1 µg/mL: [1]
3.5 to 12.5 µg/mL: E. coli LZ3111
1 to 3.5 µg/mL: [2]
12.5 to 150 µg/mL: all other assays above

CCCCCCCCCNCc1cc2cc(-c3[nH]c(=O)c(C(=O)O)c(O)c3CC)ccc2n1C [Cpd 338, 5-ethyl-4-hydroxy-6-(1-methyl-2-((nonylamino)methyl)-1H-indol-5-yl)-2-oxo-1,2-dihydropyridine-3-carboxylic acid]
1 to 3.5 µg/mL: [1]
3.5 to 12.5 µg/mL: [2]
12.5 to 150 µg/mL: all other assays above

CCc1c(-c2ccc3c4c([nH]c3c2)CN(C(C)C)CC4)[nH]c(=O)c(C(=O)O)c1O [Cpd 449, 5-ethyl-4-hydroxy-6-(2-isopropyl-2,3,4,9-tetrahydro-1H-pyrido[3,4-b]indol-7-yl)-2-oxo-1,2-dihydropyridine-3-carboxylic acid]
3.5 to 12.5 µg/mL: E. coli LZ3111 | [3] | A. baumannii MXX2240
12.5 to 150 µg/mL: [2] | K. pneumoniae MXX1232 | [5]
< 1 µg/mL: [1] | E. coli 25922 | [4]

CCc1c(-c2ccc3c4c([nH]c3c2)CCNC4)[nH]c(=O)c(C(=O)O)c1O [Cpd 450, 5-ethyl-4-hydroxy-2-oxo-6-(2,3,4,5-tetrahydro-1H-pyrido[4,3-b]indol-7-yl)-1,2-dihydropyridine-3-carboxylic acid]
3.5 to 12.5 µg/mL: [1] | [4]
not listed: E. coli ELZ4251
12.5 to 150 µg/mL: all other assays above

CCc1c(-c2ccc3c4c([nH]c3c2)CCN(C)C4)[nH]c(=O)c(C(=O)O)c1O [Cpd 451, 5-ethyl-4-hydroxy-6-(2-methyl-2,3,4,5-tetrahydro-1H-pyrido[4,3-b]indol-7-yl)-2-oxo-1,2-dihydropyridine-3-carboxylic acid]
3.5 to 12.5 µg/mL: E. coli LZ3111 | [3]
< 1 µg/mL: [1] | E. coli 25922 | [4]
not listed: E. coli ELZ4251
12.5 to 150 µg/mL: all other assays above

CCc1c(-c2ccc3c4c([nH]c3c2)CCN(CC)C4)[nH]c(=O)c(C(=O)O)c1O [Cpd 452, 5-ethyl-6-(2-ethyl-2,3,4,5-tetrahydro-1H-pyrido[4,3-b]indol-7-yl)-4-hydroxy-2-oxo-1,2-dihydropyridine-3-carboxylic acid]
1 to 3.5 µg/mL: [4]
< 1 µg/mL: [1] | E. coli 25922
not listed: E. coli ELZ4251
12.5 to 150 µg/mL: all other assays above

CCc1c(-c2ccc3[nH]c(-c4ccc(C#N)cc4)cc3c2)[nH]c(=O)c(C(=O)O)c1O [Cpd 453, 6-(2-(4-cyanophenyl)-1H-indol-5-yl)-5-ethyl-4-hydroxy-2-oxo-1,2-dihydropyridine-3-carboxylic acid]
1 to 3.5 µg/mL: [2]
< 1 µg/mL: [1]
not listed: E. coli ELZ4251
12.5 to 150 µg/mL: all other assays above

CCc1c(-c2ccc3[nH]c(-c4ccccc4)cc3c2)[nH]c(=O)c(C(=O)O)c1O [Cpd 454, 5-ethyl-4-hydroxy-2-oxo-6-(2-phenyl-1H-indol-5-yl)-1,2-dihydropyridine-3-carboxylic acid]
< 1 µg/mL: [1] | [2]
not listed: E. coli ELZ4251
12.5 to 150 µg/mL: all other assays above

CCc1c(-c2ccc3[nH]c(-c4ccc(C(F)(F)F)cc4)cc3c2)[nH]c(=O)c(C(=O)O)c1O [Cpd 455, 5-ethyl-4-hydroxy-2-oxo-6-(2-(4-(trifluoromethyl)phenyl)-1H-indol-5-yl)-1,2-dihydropyridine-3-carboxylic acid]
3.5 to 12.5 µg/mL: [2]
< 1 µg/mL: [1]
not listed: E. coli ELZ4251
12.5 to 150 µg/mL: all other assays above
